# Results from patent US20020169394A1, “Integrated tissue poration, fluid harvesting and analysis device, and method therefor” (priority 1993, published 2002).
# What was measured:
# [1] = tested on: subjects left forearm; assay: Lidocaine delivery through porated stratum corneum with ultrasound; numbness assessed by rubbing a 30 gauge wire across the test site; format: in vivo, human
# Text: A drawing of an illustrative delivery apparatus 300 is shown in FIG. 50, wherein the apparatus comprises a housing 304 enclosing a reservoir 308 for holding a drug-containing solution 312. The top portion of the housing comprises an ultrasonic transducer 316 for providing sonic energy to aid in transporting the drug-containing solution through micropores; 320 in the stratum corneum 324. A port 328 in the ultrasonic transducer permits application of pressure thereto for further aiding in transporting the drug-containing solution through the micropores in the stratum corneum. The delivery apparatus is applied to a selected area of an individual's skin such that it is positioned over at least one, and preferably a plurality, of micropores. An adhesive layer 332 attached to a lower portion of the housing permits the apparatus to adhere to the skin such that the drugcontaining solution in the reservoir is in liquid communication with the micropores.
# Five subjects were tested for the effectiveness of drug delivery using poration together with ultrasound. The experiment used two sites on the subjects left forearm about three inches apart, equally spaced between the thumb and upper arm. The site near the thumb will be referred to as site 1 the site furthest from the thumb will be referred to as site 2. […] Site 2 was porated with 24 holes spaced 0.8 millimeters apart in a grid contained within a 1 cm diameter circle. The micropores in Site 2 were generated according to the procedure of Example 6. […] Ultrasound applications were made with a custom manufactured Zevex ultrasonic transducer assembly set in burst mode with 0.4 Volts peak to peak input with 1000 count bursts occurring at 10 Hz with a 65.4 kHz fundamental frequency, i.e., a pulse modulated signal with the transducer energized for 15 millisecond bursts, and then turned off for the next 85 milliseconds. The measured output of the amplifier to the transducer was 0.090 watts RMS.
# Experiments were executed on both sites, Site 1 for 10 to 12 minute duration and Site 2 for two 5 minute duration intervals applied serially to the same site. Both sites were assessed for numbness using a scale of 10 to 0, where 10 indicated no numbness and 0 indicated complete numbness as reported by the test subjects.
# [2] = tested on: human cadaver skin samples (stratum corneum); format: in vitro ADME
# Procedure: Modulated sonic energy and chemical enhancers were tested for their ability to control transdermal flux on human cadaver skin samples. In these tests, the epidermal membrane had been separated from the human cadaver whole skin by the heat-separation method of Example 1. The epidermal membrane was cut and placed between two halves of the permeation cell with the stratum corneum facing either the upper (donor) compartment or lower (receiver) compartment. Modified Franz cells were used to hold the epidermis, as shown in FIG. 2 of U.S. Pat. No. 5,445,611. Each Franz cell consists of an upper chamber and a lower chamber held together with one or more clamps. The lower chamber has a sampling port through which materials can be added or removed. A sample of stratum corneum is held between the upper and lower chambers when they are clamped together. The upper chamber of each Franz cell is modified to allow an ultrasound transducer to be positioned within 1 cm of the stratum corneum membrane. Methylene blue solution was used as an indicator molecule to assess the permeation of the stratum corneum. A visual record of the process and results of each experiment was obtained in a time stamped magnetic tape format with a video camera and video cassette recorder (not shown). Additionally, samples were withdrawn for measurement with an absorption spectrometer to quantitate the amount of dye which had traversed the stratum corneum membrane during an experiment. Chemical enhancers suitable for use could vary over a wide range of solvents and/or cell envelope disordering compounds as noted above. The specific enhancer utilized was: ethanol/glycerol/water/glycerolmonooleate/methyl laurate in 50/30/15/2.5/2.5 volume ratios. The system for producing and controlling the sonic energy included a programmable 0-30 MHz arbitrary waveform generator (Stanford Reserach Systems Model DS345), a 20 watt 0-30 MHz amplifier, and two unfocused ultrasound immersion transducers having peak resonances at 15 and 25 MHz, respectively. […]
# [3] = Site 2 porated plus ultrasound, after the second application
Structure (SMILES),"numbness, scale of 10 to 0 (10 no numbness, 0 complete numbness) ([1]; Site 1 control, no micro-poration or sonic energy, at approximately 20 minutes)","numbness, scale of 10 to 0 (10 no numbness, 0 complete numbness) ([1]; Site 1 control: lidocaine and enhancer solution, no micro-poration or sonic energy, at 10 to 12 minutes, 5 subjects)","diameter of totally numb circle ([1]; Site 2 porated plus ultrasound, after the second 5 minute application)","diameter of numb oval pattern parallel to the forearm [1, 3]","diameter of numb oval pattern perpendicular to the forearm [1, 3]","numbness, scale of 10 to 0 (10 no numbness, 0 complete numbness) ([1]; Site 2 porated with 24 holes plus low level ultrasound, in the 1 cm circle containing the porations, first 5 minute application)",visual evidence of dye flux through the stratum corneum [2],visually detectable permeation of the stratum corneum [2],"level of dye solution in 2 ml of receiver medium (no visual indication of dye flux) ([2]; human, 5 min)"
CCN(CC)CC(=O)Nc1c(C)cccc1C [lidocaine],3,7 to 10,about 12 cm,2 to 6 cm,2 to 2.5 cm,0 to 1,,,
CN(C)c1ccc2nc3ccc(=[N+](C)C)cc-3sc2c1 [methylene blue],,,,,,,No visual evidence of dye flux,no visually detectable permeation,< 0.0015 % (v/v)
